Assay results taken from ChEMBL document CHEMBL5506073, “Discovery of Novel Ortho-Aminophenol Derivatives Targeting Lipid Peroxidation with Potent Antiferroptotic Activities” (J Med Chem, 2024).
The source made the active and inactive calls. The rule behind the calls is not given here.

Columns and labels:
Mus musculus [1] = experiment: Protection against kidney ischemia-reperfusion injury in C57BL/6 mouse model assessed as decrease in renal tubule dilation at 10 mg/kg, ip administered twice 1 hr prior to ischemia onset measured after 24 hrs post-ischemia by H and E staining based analysis; type: functional, organism-based; details: time 25.0 hrs
HT-1080 [2] = experiment: Effect on glutathione metabolic pathway in human HT-1080 cells assessed as change in SLC7A11 mRNA level by qRT-PCR analysis; type: functional, cell-based
HTR-8/SVneo [3] = experiment: Inhibition of FIN56-induced ferroptosis in human HTR-8/SVneo cells assessed as cell viability at 200 nM incubated for 24 hrs by CCK8 assay; type: functional, cell-based
Mus musculus [4] = experiment: Protection against APAP-induced acute liver injury in overnight fasted C57BL/6 mouse model assessed as reduction in 4-HNE formation in liver at 10 mg/kg, ip administered 1 hr prior to APAP treatment measured after 12 hrs post-APAP treatment under continuous fasting condition by IHC analysis; type: functional, organism-based; details: time 13.0 hrs
HT-1080 [5] = experiment: Inhibition of ferroptosis in human HT-1080 cells assessed as reversal of RSL3-induced normal morphological loss; type: functional, cell-based
HT-1080 [6] = experiment: Inhibition of ferroptosis in human HT-1080 cells assessed as reversal of RSL3-induced cell shrinkage; type: functional, cell-based
Mus musculus [7] = experiment: Protection against kidney ischemia-reperfusion injury in C57BL/6 mouse model assessed as decrease in KIM-1 level in kidney at 10 mg/kg, ip administered twice 1 hr prior to ischemia onset measured after 24 hrs post-ischemia by IHC analysis; type: functional, organism-based; details: time 25.0 hrs
HT-1080 [8] = experiment: Effect on iron metabolism in human HT-1080 cells assessed as change in FTH1 mRNA level by qRT-PCR analysis; type: functional, cell-based
Mus musculus [9] = experiment: Protection against kidney ischemia-reperfusion injury in C57BL/6 mouse model assessed as decrease in cytoplasmic vacuoles in kidney at 10 mg/kg, ip administered twice 1 hr prior to ischemia onset measured after 24 hrs post-ischemia by H and E staining based analysis; type: functional, organism-based; details: time 25.0 hrs
HT-1080 [10] = experiment: Inhibition of ferroptosis in human HT-1080 cells assessed as reversal of RSL3-induced swelling; type: functional, cell-based
HT-1080 [11] = experiment: Effect on iron metabolism in human HT-1080 cells assessed as change in DMT1 mRNA level by qRT-PCR analysis; type: functional, cell-based
HK-2 [12] = experiment: Inhibition of FIN56-induced ferroptosis in human HK-2 cells assessed as cell viability at 200 nM incubated for 24 hrs by CCK8 assay; type: functional, cell-based
HT-1080 [13] = experiment: Inhibition of FIN56-induced ferroptosis in human HT-1080 cells assessed as cell viability at 200 nM incubated for 24 hrs by CCK8 assay; type: functional, cell-based
HT-1080 [14] = experiment: Inhibition of RSL3-induced ferroptosis in human HT-1080 cells assessed as cell viability at 0.5 uM incubated for 24 hrs by CCK8 assay; type: functional, cell-based
HKC [15] = experiment: Inhibition of RSL3-induced ferroptosis in human HKC cells assessed as cell viability at 200 nM incubated for 24 hrs by CCK8 assay; type: functional, cell-based
Mus musculus [16] = experiment: Protection against APAP-induced acute liver injury in overnight fasted C57BL/6 mouse model assessed as decrease in plasma AST level at 10 mg/kg, ip administered 1 hr prior to APAP treatment measured after 12 hrs post-APAP treatment under continuous fasting condition; type: functional, organism-based; details: time 13.0 hrs
HT-1080 [17] = experiment: Effect on iron metabolism in human HT-1080 cells assessed as change in TFRC mRNA level by qRT-PCR analysis; type: functional, cell-based
Mus musculus [18] = experiment: (§1) Protection against APAP-induced acute liver injury in overnight fasted C57BL/6 mouse model assessed as normal pathology of liver at 10 mg/kg, ip administered 1 hr prior to APAP treatment measured after 12 hrs post-APAP treatment under continuous fasting condition by H and E staining based analysis; type: functional, organism-based; details: time 13.0 hrs
HT-1080 [19] = experiment: Effect on lipid metabolism in human HT-1080 cells assessed as change in COX2 mRNA level by qRT-PCR analysis; type: functional, cell-based
HT-1080 [20] = experiment: Inhibition of RSL3-induced lipid peroxidation in human HT-1080 cells assessed as reduction in MDA adduct accumulation by ELISA; type: functional, cell-based
HTR-8/SVneo [21] = experiment: Inhibition of RSL3-induced ferroptosis in human HTR-8/SVneo cells assessed as cell viability at 200 nM incubated for 24 hrs by CCK8 assay; type: functional, cell-based
HT-1080 [22] = experiment: Effect on glutathione metabolic pathway in human HT-1080 cells assessed as change in GPX4 mRNA level by qRT-PCR analysis; type: functional, cell-based
KHOS/NP [23] = experiment: Inhibition of FIN56-induced ferroptosis in human KHOS/NP cells assessed as cell viability at 200 nM incubated for 24 hrs by CCK8 assay; type: functional, cell-based
HT-1080 [24] = experiment: Inhibition of RSL3-induced ferroptosis in human HT-1080 cells assessed as cell viability at 200 nM incubated for 24 hrs by CCK8 assay; type: functional, cell-based
HT-1080 [25] = experiment: Inhibition of RSL3-induced ferroptosis in human HT-1080 cells assessed as cell viability incubated for 24 hrs by CCK8 assay; type: functional, cell-based; details: HT-1080, 24 h
KHOS/NP [26] = experiment: Inhibition of RSL3-induced ferroptosis in human KHOS/NP cells assessed as cell viability at 200 nM incubated for 24 hrs by CCK8 assay; type: functional, cell-based
Mus musculus [27] = experiment: as §1, with “reduction in necrotic areas” for “normal pathology”; type: functional, organism-based; details: time 13.0 hrs
HT-1080 [28] = experiment: Effect on lipid metabolism in human HT-1080 cells assessed as change in ALOX15 mRNA level by qRT-PCR analysis; type: functional, cell-based
Mus musculus [29] = experiment: Protection against APAP-induced acute liver injury in overnight fasted C57BL/6 mouse model assessed as decrease in plasma ALT level at 10 mg/kg, ip administered 1 hr prior to APAP treatment measured after 12 hrs post-APAP treatment under continuous fasting condition; type: functional, organism-based; details: time 13.0 hrs
Mus musculus [30] = experiment: Protection against APAP-induced acute liver injury in overnight fasted C57BL/6 mouse model assessed as reversal of native liver architecture at 10 mg/kg, ip administered 1 hr prior to APAP treatment measured after 12 hrs post-APAP treatment under continuous fasting condition by H and E staining based analysis; type: functional, organism-based; details: time 13.0 hrs
HT-1080 [31] = experiment: Inhibition of RSL3-induced lipid peroxidation in human HT-1080 cells assessed as reduction in green fluorescence by C11-BODIPY581/591 probe based analysis; type: functional, cell-based
SW480 [32] = experiment: Inhibition of FIN56-induced ferroptosis in human SW480 cells assessed as cell viability at 200 nM incubated for 24 hrs by CCK8 assay; type: functional, cell-based
[33] = Antioxidant activity assessed as DPPH radical scavenging activity at 20 uM incubated for 30 mins by absorbance based assay; type: functional
HT-1080 [34] = experiment: Inhibition of ferroptosis in human HT-1080 cells assessed as reversal of RSL3-induced membrane rupture; type: functional, cell-based
Mus musculus [35] = experiment: Protection against kidney ischemia-reperfusion injury in C57BL/6 mouse model assessed as decrease in brush edges loss in kidney at 10 mg/kg, ip administered twice 1 hr prior to ischemia onset measured after 24 hrs post-ischemia by H and E staining based analysis; type: functional, organism-based; details: time 25.0 hrs
SW480 [36] = experiment: Inhibition of RSL3-induced ferroptosis in human SW480 cells assessed as cell viability at 200 nM incubated for 24 hrs by CCK8 assay; type: functional, cell-based
Mus musculus [37] = experiment: Protection against kidney ischemia-reperfusion injury in C57BL/6 mouse model assessed as decrease in BUN level at 10 mg/kg, ip administered twice 1 hr prior to ischemia onset measured after 24 hrs post-ischemia; type: functional, organism-based; details: time 25.0 hrs
HKC [38] = experiment: Inhibition of FIN56-induced ferroptosis in human HKC cells assessed as cell viability at 200 nM incubated for 24 hrs by CCK8 assay; type: functional, cell-based
[39] = Antioxidant activity assessed as DPPH radical scavenging activity at 10 uM incubated for 30 mins by absorbance based assay; type: functional
HT-1080 [40] = experiment: Effect on lipid metabolism in human HT-1080 cells assessed as change in ACSL4 mRNA level by qRT-PCR analysis; type: functional, cell-based
HK-2 [41] = experiment: Inhibition of RSL3-induced ferroptosis in human HK-2 cells assessed as cell viability at 200 nM incubated for 24 hrs by CCK8 assay; type: functional, cell-based
Mus musculus [42] = experiment: Protection against kidney ischemia-reperfusion injury in C57BL/6 mouse model assessed as decrease in serum creatinine level at 10 mg/kg, ip administered twice 1 hr prior to ischemia onset measured after 24 hrs post-ischemia; type: functional, organism-based; details: time 25.0 hrs
HT-1080 [43] = experiment: Inhibition of RSL3-induced ferroptosis in human HT-1080 cells assessed as cell viability upto 10 uM incubated for 24 hrs by CCK8 assay; type: functional, cell-based

In the case of CC(C)COC(=O)c1cccc(O)c1N, the Activity (Mus musculus [1]) is reported as “Active”, the Activity (HT-1080 [2]) is reported as “inactive” and the inhibition (HTR-8/SVneo [3]) is reported as “Active”. The Activity (Mus musculus [4]) was “Active”, the inhibition (HT-1080 [5]) was “Active” and the inhibition (HT-1080 [6]) was “Active”. The Activity (Mus musculus [7]) was “Active”, the Activity (HT-1080 [8]) was “inactive” and the Activity (Mus musculus [9]) was “Active”. For the same molecule, the inhibition (HT-1080 [10]) was “Active”, the Activity (HT-1080 [11]) was “inactive” and the inhibition (HK-2 [12]) was “Active”. The inhibition (HT-1080 [13]) was “Active”, the inhibition (HT-1080 [14]) was “Active” and the inhibition (HKC [15]) was “Active”. The Activity (Mus musculus [16]) was “Active”, the Activity (HT-1080 [17]) was “inactive” and the Activity (Mus musculus [18]) was “Active”. The Activity (HT-1080 [19]) was “inactive”, the inhibition (HT-1080 [20]) was “Active” and the inhibition (HTR-8/SVneo [21]) was “Active”. The Activity (HT-1080 [22]) was “inactive”, the inhibition (KHOS/NP [23]) was “Active” and the inhibition (HT-1080 [24]) was “Active”. The EC50 (HT-1080 [25]) was 158 nM, the inhibition (KHOS/NP [26]) was “Active” and the Activity (Mus musculus [27]) was “Active”. For the same molecule, the Activity (HT-1080 [28]) was “inactive”, the Activity (Mus musculus [29]) was “Active” and the Activity (Mus musculus [30]) was “Active”. For the same molecule, the inhibition (HT-1080 [31]) was “Active”, the inhibition (SW480 [32]) was “Active” and the Activity [33] was “Active”. The inhibition (HT-1080 [34]) was “Active”, the Activity (Mus musculus [35]) was “Active” and the inhibition (SW480 [36]) was “Active”. For the same molecule, the Activity (Mus musculus [37]) was “Active”, the inhibition (HKC [38]) was “Active” and the Activity [39] was “Active”. The Activity (HT-1080 [40]) was “inactive”, the inhibition (HK-2 [41]) was “Active” and the Activity (Mus musculus [42]) was “Active”.

In the case of Cc1ccc(CSc2nnc(-c3cccc(O)c3N)o2)cc1, the Activity (Mus musculus [1]) is reported as “Active”, the Activity (HT-1080 [2]) is reported as “inactive” and the inhibition (HTR-8/SVneo [3]) is reported as “Active”. The Activity (Mus musculus [4]) was “Active”, the inhibition (HT-1080 [5]) was “Active” and the inhibition (HT-1080 [6]) was “Active”. For the same molecule, the Activity (Mus musculus [7]) was “Active”, the Activity (HT-1080 [8]) was “inactive” and the Activity (Mus musculus [9]) was “Active”. The inhibition (HT-1080 [10]) was “Active”, the Activity (HT-1080 [11]) was “inactive” and the inhibition (HK-2 [12]) was “Active”. For the same molecule, the inhibition (HT-1080 [13]) was “Active”, the inhibition (HKC [15]) was “Active” and the Activity (Mus musculus [16]) was “Active”. The Activity (HT-1080 [17]) was “inactive”, the Activity (Mus musculus [18]) was “Active” and the Activity (HT-1080 [19]) was “inactive”. The inhibition (HT-1080 [20]) was “Active”, the inhibition (HTR-8/SVneo [21]) was “Active” and the Activity (HT-1080 [22]) was “inactive”. For the same molecule, the inhibition (KHOS/NP [23]) was “Active”, the inhibition (HT-1080 [24]) was “Active” and the EC50 (HT-1080 [25]) was 46 nM. The inhibition (KHOS/NP [26]) was “Active”, the Activity (Mus musculus [27]) was “Active” and the Activity (HT-1080 [28]) was “inactive”. For the same molecule, the Activity (Mus musculus [29]) was “Active”, the Activity (Mus musculus [30]) was “Active” and the inhibition (HT-1080 [31]) was “Active”. For the same molecule, the inhibition (SW480 [32]) was “Active”, the Activity [33] was “Active” and the inhibition (HT-1080 [34]) was “Active”. The Activity (Mus musculus [35]) was “Active”, the inhibition (SW480 [36]) was “Active” and the Activity (Mus musculus [37]) was “Active”. For the same molecule, the inhibition (HKC [38]) was “Active”, the Activity (HT-1080 [40]) was “inactive” and the inhibition (HK-2 [41]) was “Active”. For the same molecule, the Activity (Mus musculus [42]) was “Active”.

For Nc1c(O)cccc1C(=O)O, the inhibition (HT-1080 [43]) was “inactive”.
